Ki data for 35 compounds are collected here from patent US8940731B2, “Substituted pyridyl amide compounds as modulators of the histamine H3 receptor” (Janssen Pharmaceutica NV, priority 2006, dated 2015).

Test [1] addresses T1, cloned human H3 receptors (Homo sapiens, UniProt Q9Y5N1).
T1 construct: expressed in transfected cells
As to the kind of experiment: H3 Receptor Binding (Human). To be noted: cloned human H3 receptors stably expressed in SK-N-MC cells; average of the results obtained; read-out: Human H3 Ki. As for the experimental part:
H3 Receptor Binding (Human)
Binding of compounds to the cloned human H3 receptors, stably expressed in SK-N-MC cells, was performed as described by Barbier, A. J. et al. (Br. J. Pharmacol. 2004, 143(5), 649-661).

The target in a further test is Rat H3 (Rattus norvegicus, UniProt Q9QYN8). Description: H3 Receptor Binding (Rat). The note with it: rat brain membranes without cerebellum, 0.8 nM N-[3H]-α-methylhistamine, 60 min at 25° C.; average of the results obtained. As for the experimental part: H3 Receptor Binding (Rat)
A rat brain without cerebellum (Zivic Laboratories Inc., Pittsburgh, Pa.) was homogenized in 50 mM Tris-HCl/5 mM EDTA and centrifuged at 1,000 rpm for 5 min. The supernatant was removed and recentrifuged at 15,000 rpm for 30 min. Pellets were rehomogenized in 50 mM Tris/5 mM EDTA (pH 7.4). Membranes were incubated with 0.8 nM N-[^3H]-α-methylhistamine plus/minus test compounds for 60 min at 25° C. and harvested by rapid filtration over GF/C glass fiber filters (pretreated with 0.3% polyethylenimine) followed by four washes with buffer. Nonspecific binding was defined in the presence of 100 μM histamine.

Counter-ions that a name gives are not always drawn.

T1 sequence (Q9Y5N1 whole entry): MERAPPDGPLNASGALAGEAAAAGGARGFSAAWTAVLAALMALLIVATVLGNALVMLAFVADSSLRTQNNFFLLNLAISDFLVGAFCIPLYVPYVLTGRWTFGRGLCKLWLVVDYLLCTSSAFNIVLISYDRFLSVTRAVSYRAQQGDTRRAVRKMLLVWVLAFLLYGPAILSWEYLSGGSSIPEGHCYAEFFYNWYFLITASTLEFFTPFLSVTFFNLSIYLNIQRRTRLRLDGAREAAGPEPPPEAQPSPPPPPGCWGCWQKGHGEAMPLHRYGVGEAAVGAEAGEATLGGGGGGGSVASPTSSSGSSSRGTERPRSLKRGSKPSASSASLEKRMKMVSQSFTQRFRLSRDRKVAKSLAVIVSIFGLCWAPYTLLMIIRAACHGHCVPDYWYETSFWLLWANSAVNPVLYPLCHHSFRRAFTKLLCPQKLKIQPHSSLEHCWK
Chain of Rat H3 (Q9QYN8 1-397 isoform Q9QYN8-3): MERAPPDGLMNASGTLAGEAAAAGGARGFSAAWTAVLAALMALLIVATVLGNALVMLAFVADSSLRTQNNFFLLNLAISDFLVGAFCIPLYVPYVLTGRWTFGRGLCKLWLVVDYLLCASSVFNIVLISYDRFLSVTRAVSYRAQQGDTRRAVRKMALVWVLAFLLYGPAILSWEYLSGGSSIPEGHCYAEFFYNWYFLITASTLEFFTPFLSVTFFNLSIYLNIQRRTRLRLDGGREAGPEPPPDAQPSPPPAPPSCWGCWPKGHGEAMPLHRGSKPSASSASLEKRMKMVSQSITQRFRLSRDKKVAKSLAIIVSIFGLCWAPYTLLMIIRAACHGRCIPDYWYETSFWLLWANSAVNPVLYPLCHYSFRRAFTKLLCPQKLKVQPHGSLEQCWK

The term Ki denotes the dissociation constant of the complex between target and ligand, obtained from inhibition or displacement. Regarding `O=C(c1ccc(Oc2ccccc2)nc1)N1CCCN(C2CC2)CC1` [Example 13, (4-Cyclopropyl-[1,4]diazepan-1-yl)-(6-phenoxy-pyridin-3-yl)-methanone], the Ki in test [1] was found to be 6 nM; at Rat H3 it was 54 nM. The corresponding values for `O=C(c1ccc(Oc2ccc(F)cc2)nc1)N1CCCN(C2CC2)CC1` [Example 18, (4-Cyclopropyl-[1,4]diazepan-1-yl)-[6-(4-fluoro-phenoxy)-pyridin-3-yl]-methanone] are 2 nM and 68 nM. As to `N#Cc1cccc(Oc2ccc(C(=O)N3CCCN(C4CCC4)CC3)cn2)c1` [Example 20, 3-[5-(4-Cyclobutyl-[1,4]diazepane-1-carbonyl)-pyridin-2-yloxy]-benzonitrile], the Ki in test [1] was determined as 1 nM; at Rat H3, 17 nM. The corresponding values for `O=C(c1ccc(Oc2ccccc2)nc1)N1CCCN(C2CCC2)CC1` [Example 21, (4-Cyclobutyl-[1,4]diazepan-1-yl)-(6-phenoxy-pyridin-3-yl)-methanone] are 2 nM and 16 nM.

Take `O=C(c1ccc(Oc2cccc(Cl)c2)nc1)N1CCCN(C2CC2)CC1` [Example 23, [6-(3-Chloro-phenoxy)-pyridin-3-yl]-(4-cyclopropyl-[1,4]diazepan-1-yl)-methanone]: the Ki in test [1] came to 3 nM; on Rat H3 it was 70 nM. Taken in the same sequence, the figures for `O=C(c1ccc(Oc2ccc(F)c(F)c2)nc1)N1CCCN(C2CC2)CC1` [Example 27, (4-Cyclopropyl-[1,4]diazepan-1-yl)-[6-(3,4-difluoro-phenoxy)-pyridin-3-yl]-methanone] were 4 nM and 86 nM.

Turning to `O=C(c1ccc(Oc2ccc(F)cc2F)nc1)N1CCCN(C2CC2)CC1` [Example 32, (4-Cyclopropyl-[1,4]diazepan-1-yl)-[6-(2,4-difluoro-phenoxy)-pyridin-3-yl]-methanone], the Ki in test [1] came out at 4 nM; on Rat H3, 92 nM. On to `O=C(c1ccc(Oc2cc(F)cc(F)c2)nc1)N1CCCN(C2CCC2)CC1` [Example 36, (4-Cyclobutyl-[1,4]diazepan-1-yl)-[6-(3,5-difluoro-phenoxy)-pyridin-3-yl]-methanone], for which the Ki is 1 nM in test [1] and 30 nM on Rat H3.

On to `O=C(c1ccc(Oc2cccc(F)c2)nc1)N1CCCN(C2CC2)CC1` [Example 37, (4-Cyclopropyl-[1,4]diazepan-1-yl)-[6-(3-fluoro-phenoxy)-pyridin-3-yl]-methanone], for which the Ki was 5 nM in test [1] and 130 nM on Rat H3. The corresponding values for `CSc1ccc(Oc2ccc(C(=O)N3CCCN(C4CC4)CC3)cn2)cc1C` [Example 41, (4-Cyclopropyl-[1,4]diazepan-1-yl)-[6-(3-methyl-4-methylsulfanyl-phenoxy)-pyridin-3-yl]-methanone] are 4 nM and 75 nM. Taken in the same sequence, the figures for `O=C(c1ccc(Oc2ccc(Cl)c(Cl)c2)cn1)N1CCCN(C2CC2)CC1` [Example 52, (4-Cyclopropyl-[1,4]diazepan-1-yl)-[5-(3,4-dichloro-phenoxy)-pyridin-2-yl]-methanone trifluoroacetic acid salt] were 4 nM and 110 nM.

Turning to `Cc1cc(Oc2ccc(C(=O)N3CCCN(C4CC4)CC3)nc2C#N)ccc1Cl` [Example 57, 3-(4-Chloro-3-methyl-phenoxy)-6-(4-cyclopropyl-[1,4]diazepane-1-carbonyl)-pyridine-2-carbonitrile], the figures for the Ki (in test [1]; on Rat H3) were 3 nM and 132 nM, respectively.

With `NC(=O)c1nc(C(=O)N2CCCN(C3CC3)CC2)ccc1Oc1cccnc1` [Example 63, 6-(4-Cyclopropyl-[1,4]diazepane-1-carbonyl)-3-(pyridin-3-yloxy)-pyridine-2-carboxylic acid amide], the Ki in test [1] came to 32 nM. Turning to `CC(C)N1CCN(C(=O)c2ccc(Oc3ccc(Cl)c(Cl)c3)c(CN)n2)CC1` [Example 64, [6-Aminomethyl-5-(3,4-dichloro-phenoxy)-pyridin-2-yl]-(4-isopropyl-piperazin-1-yl)-methanone trifluoroacetic acid salt], the Ki in test [1] is 165 nM.

Take `O=C(c1ccc(Oc2ccc(F)cc2)cn1)N1CCCN(C2CCC2)CC1` [Example 69, (4-Cyclobutyl-[1,4]diazepan-1-yl)-[5-(4-fluoro-phenoxy)-pyridin-2-yl]-methanone trifluoroacetic acid salt]: the Ki in test [1] was found to be 2 nM. Same read-out and setting: with `O=C(c1ccc(Oc2cccc(F)c2)cn1)N1CCCN(C2CCC2)CC1` [Example 71, (4-Cyclobutyl-[1,4]diazepan-1-yl)-[5-(3-fluoro-phenoxy)-pyridin-2-yl]-methanone trifluoroacetic acid salt] the figure was 2 nM. On the same count and under the same terms, with `O=C(c1ccc(Oc2ccccc2F)cn1)N1CCCN(C2CCC2)CC1` [Example 72, (4-Cyclobutyl-[1,4]diazepan-1-yl)-[5-(2-fluoro-phenoxy)-pyridin-2-yl]-methanone] the figure was 2 nM; with `CC(C)N1CCN(C(=O)c2ccc(Oc3ccccc3Cl)nc2)CC1` [Example 75, [6-(2-Chloro-phenoxy)-pyridin-3-yl]-(4-isopropyl-piperazin-1-yl)-methanone], 9 nM; with `O=C(c1ccc(Oc2ccccc2Cl)nc1)N1CCN(C2CCCC2)CC1` [Example 76, [6-(2-Chloro-phenoxy)-Pyridin-3-yl]-(4-cyclopentyl-piperazin-1-yl)-methanone], 19 nM.

`O=C(c1ccc(Oc2ccc(Cl)cc2)nc1)N1CCN(C2CCCC2)CC1` [Example 77, [6-(4-Chloro-phenoxy)-Pyridin-3-yl]-(4-cyclopentyl-piperazin-1-yl)-methanone]: in test [1], the Ki was found to be 22 nM. Consider `O=C(c1ccc(Oc2ccccc2F)nc1)N1CCN(C2CCCC2)CC1` [Example 78], for which the Ki in test [1] was found to be 24 nM. The same measure, in the same setting: with `O=C(c1ccc(Oc2ccc(F)cc2)nc1)N1CCN(C2CCC2)CC1` [Example 79, (4-Cyclobutyl-piperazin-1-yl)-[6-(4-fluoro-phenoxy)-pyridin-3-yl]-methanone] the figure was 10 nM; with `CN1CCCN(C(=O)c2ccc(Oc3ccc(F)cc3)nc2)CC1` [Example 80, [6-(4-Fluoro-phenoxy)-pyridin-3-yl]-(4-methyl-[1,4]diazepan-1-yl)-methanone], 253 nM; with `N#Cc1nc(C(=O)N2CCCN(C3CC3)CC2)ccc1Oc1ccccc1` [Example 81, 6-(4-Cyclopropyl-[1,4]diazepane-1-carbonyl)-3-phenoxy-pyridine-2-carbonitrile], 3 nM. As to `N#Cc1nc(C(=O)N2CCCN(C3CCC3)CC2)ccc1Oc1ccc(F)cc1` [Example 82, 6-(4-Cyclobutyl-[1,4]diazepane-1-carbonyl)-3-(4-fluoro-phenoxy)-pyridine-2-carbonitrile], the Ki in test [1] was determined as 1 nM.

With `O=C(c1ccc(Sc2ccc(Cl)cc2)nc1)N1CCCN(C2CCC2)CC1` [Example 85, [6-(4-Chloro-phenylsulfanyl)-pyridin-3-yl]-(4-cyclobutyl-[1,4]diazepan-1-yl)-methanone], in test [1], the Ki stood at 1 nM. Same read-out and setting: with `O=C(c1ccc(Sc2ccccc2)cn1)N1CCCN(C2CCC2)CC1` [Example 91, (4-Cyclobutyl-[1,4]diazepan-1-yl)-(5-phenylsulfanyl-pyridin-2-yl)-methanone] the figure was 3 nM; with `CN1CCCN(C(=O)c2ccc(Oc3ccc(F)cc3)nc2)CC1` [Example 92, [6-(4-Fluoro-phenoxy)-pyridin-3-yl]-(4-methyl-[1,4]diazepan-1-yl)-methanone], 250 nM. Still for that read-out and setting: with `CC(C)CN1CCN(C(=O)c2ccc(Oc3ccc(F)cc3)nc2)CC1` [Example 93, [6-(4-Fluoro-phenoxy)-pyridin-3-yl]-(4-isobutyl-piperazin-1-yl)-methanone] the figure was 58 nM; with `O=C(c1ccc(Sc2ccc(F)cc2)nc1)N1CCCN(C2CCC2)CC1` [Example 97, (4-Cyclobutyl-[1,4]diazepan-1-yl)-[6-(4-fluoro-phenylsulfanyl)-pyridin-3-yl]-methanone], 1 nM. In the case of `CCN1CCCN(C(=O)c2ccc(Oc3ccc(F)cc3)nc2)CC1` [Example 98, (4-Ethyl-[1,4]diazepan-1-yl)-[6-(4-fluoro-phenoxy)-pyridin-3-yl]-methanone], the Ki in test [1] stood at 19 nM. The same measure, in the same setting: with `CC(C)N1CCN(C(=O)c2ccc(Oc3ccc(F)cc3)nc2)CC1` [Example 99, [6-(4-Fluoro-phenoxy)-pyridin-3-yl]-(4-isopropyl-piperazin-1-yl)-methanone] the figure was 28 nM; with `CSc1ccc(Oc2ccc(C(=O)N3CCN(C4CCCC4)CC3)cn2)cc1C` [Example 100, (4-Cyclopentyl-piperazin-1-yl)-[6-(3-methyl-4-methylsulfanyl-phenoxy)-pyridin-3-yl]-methanone], 98 nM; with `CSc1ccc(Oc2ccc(C(=O)N3CCN(C(C)C)CC3)cn2)cc1C` [Example 101, (4-Isopropyl-piperazin-1-yl)-[6-(3-methyl-4-methylsulfanyl-phenoxy)-pyridin-3-yl]-methanone], 59 nM.

For `Cc1cccc(Oc2ccc(C(=O)N3CCCN(C4CCC4)CC3)cn2)c1` [Example 103, (4-Cyclobutyl-[1,4]diazepan-1-yl)-(6-m-tolyloxy-pyridin-3-yl)-methanone], the inhibition constant Ki in test [1] turned out to be 1 nM.
